Measurements from ChEMBL document CHEMBL3885861, “Open TG-GATES”.

Species on record: Rattus norvegicus
Assay: Open TG-GATES - Regimen: Daily Repeat
Assay type: toxicity, organism-based, Sprague-Dawley
Parameters: regimen Daily Repeat, gender Male, age 6 weeks
Settings: in vivo, po, route gavage; for APTT / Bas / Eos / Fbg / Ht / Lym / MCHC / MCV / Mono / RBC / Ret / WBC / Hb / Neu: tissue Blood; for KIDNEY_L / KIDNEY_R / KIDNEY_TOTAL: tissue Kidney; for ALP / ALT / AST / BUN / CRE / Ca / Cl / DBIL / GLC / IP / K / PL / RALB / TBIL / TC / TG / TP / gamma-GTP: tissue Plasma
[1] = 0 mg/kg, 72 h, dose level Control, time 3 day
[2] = 0 mg/kg, […], dose level Control, time 7 day
[3] = 0 mg/kg, […], dose level Control, time 14 day
[4] = 0 mg/kg, […], dose level Control, time 28 day

Compound `CCCCC1C(=O)N(c2ccccc2)N(c2ccccc2)C1=O` [PHENYLBUTAZONE] has a TERMINAL_BW [1] of 239.7 g, an APTT [1] of 16.9 s and a Bas [1] of 0%. For the same compound, the Eos [1] was 1%, the Fbg [1] was 233.4 mg/dL and the Ht [1] was 42.7%. It also gave a Lym [1] of 81.6%, an MCHC [1] of 33.3% and an MCV [1] of 63.6 fL. It also gave a Mono [1] of 5.6%, an RBC [1] of 672.8 x10_4/ul and a Ret [1] of 7.3%. It also gave a WBC [1] of 131.2 x10_2/uL, a KIDNEY_L [1] of 1.1 g and a KIDNEY_R [1] of 1.1 g. For the same compound, the KIDNEY_TOTAL [1] was 2.2 g, the ALP [1] was 868 IU/L and the ALT [1] was 35.2 IU/L. It also gave an AST [1] of 61 IU/L, a BUN [1] of 17.4 mg/dL and a CRE [1] of 0.6 mg/dL. For the same compound, the Ca [1] was 10.6 mg/dL, the Cl [1] was 105 meq/L and the DBIL [1] was 0 mg/dL. The GLC [1] was 195.2 mg/dL, the IP [1] was 9 mg/dL and the K [1] was 5.1 meq/L. For the same compound, the PL [1] was 170.6 mg/dL, the RALB [1] was 4 g/dL and the TBIL [1] was 0.3 mg/dL. For the same compound, the TC [1] was 86.6 mg/dL, the TG [1] was 136.4 mg/dL and the TP [1] was 6.1 g/dL. For the same compound, the gamma-GTP [1] was 1.6 IU/L, the TERMINAL_BW [2] was 268.9 g and the TERMINAL_BW [3] was 318.1 g. It also gave a TERMINAL_BW [4] of 373 g, an APTT [2] of 15.7 s and a Bas [2] of 0%. The Eos [2] was 0.8%, the Fbg [2] was 242.2 mg/dL and the Hb [2] was 13.9 g/dL. It also gave a Ht [2] of 42.1%, a Lym [2] of 84.2% and an MCHC [2] of 33.1%. It also gave an MCV [2] of 62.4 fL, a Mono [2] of 6.6% and a Neu [2] of 8.8%. For the same compound, the RBC [2] was 674.8 x10_4/ul, the Ret [2] was 5.4% and the WBC [2] was 155.4 x10_2/uL. The APTT [3] was 16.4 s, the Bas [3] was 0% and the Eos [3] was 0.6%. For the same compound, the Fbg [3] was 227.8 mg/dL, the Hb [3] was 15 g/dL and the Ht [3] was 44.8%. For the same compound, the Lym [3] was 84.8%, the MCHC [3] was 33.6% and the MCV [3] was 62.7 fL. It also gave a Mono [3] of 4.2%, a Neu [3] of 10.2% and an RBC [3] of 714.8 x10_4/ul. It also gave a Ret [3] of 4.4%, a WBC [3] of 131.9 x10_2/uL and an APTT [4] of 16 s. The Bas [4] was 0%, the Eos [4] was 1% and the Fbg [4] was 233 mg/dL. It also gave a Hb [4] of 15.7 g/dL, a Ht [4] of 46.9% and a Lym [4] of 82.8%. For the same compound, the MCHC [4] was 33.4%, the MCV [4] was 56.2 fL and the Mono [4] was 4.2%. It also gave an RBC [4] of 835.8 x10_4/ul, a Ret [4] of 2.1% and a WBC [4] of 151.8 x10_2/uL. For the same compound, the KIDNEY_L [2] was 1.2 g, the KIDNEY_R [2] was 1.1 g and the KIDNEY_TOTAL [2] was 2.3 g. It also gave a KIDNEY_L [3] of 1.2 g, a KIDNEY_R [3] of 1.2 g and a KIDNEY_TOTAL [3] of 2.3 g. For the same compound, the KIDNEY_L [4] was 1.4 g, the KIDNEY_R [4] was 1.4 g and the KIDNEY_TOTAL [4] was 2.7 g. It also gave an ALP [2] of 919.6 IU/L, an ALT [2] of 35.6 IU/L and an AST [2] of 69 IU/L. For the same compound, the BUN [2] was 18.8 mg/dL, the CRE [2] was 0.5 mg/dL and the Ca [2] was 10.6 mg/dL. The Cl [2] was 105.4 meq/L, the DBIL [2] was 0.006 mg/dL and the GLC [2] was 210.8 mg/dL. It also gave an IP [2] of 8.9 mg/dL, a K [2] of 4.9 meq/L and an RALB [2] of 3.9 g/dL. The TBIL [2] was 0.3 mg/dL, the TC [2] was 74.4 mg/dL and the TG [2] was 112.6 mg/dL. For the same compound, the TP [2] was 6.6 g/dL, the gamma-GTP [2] was 1.8 IU/L and the ALP [3] was 748 IU/L. The ALT [3] was 31.4 IU/L, the AST [3] was 57.8 IU/L and the BUN [3] was 19.6 mg/dL. For the same compound, the CRE [3] was 0.6 mg/dL, the Ca [3] was 10.5 mg/dL and the Cl [3] was 108 meq/L. For the same compound, the DBIL [3] was 0.016 mg/dL, the GLC [3] was 207.4 mg/dL and the IP [3] was 7.9 mg/dL. For the same compound, the K [3] was 4.7 meq/L, the PL [3] was 160.4 mg/dL and the RALB [3] was 4 g/dL. It also gave a TBIL [3] of 0.3 mg/dL, a TC [3] of 79.2 mg/dL and a TG [3] of 177.6 mg/dL. The TP [3] was 6.2 g/dL, the gamma-GTP [3] was 1.2 IU/L and the ALP [4] was 692.8 IU/L. The ALT [4] was 33 IU/L, the AST [4] was 62 IU/L and the BUN [4] was 20.2 mg/dL. It also gave a CRE [4] of 0.6 mg/dL, a Ca [4] of 10.1 mg/dL and a Cl [4] of 107.6 meq/L. For the same compound, the DBIL [4] was 0.008 mg/dL, the GLC [4] was 200 mg/dL and the IP [4] was 6.8 mg/dL. The K [4] was 4.5 meq/L, the RALB [4] was 3.9 g/dL and the TBIL [4] was 0.3 mg/dL. The TC [4] was 61 mg/dL, the TG [4] was 170.2 mg/dL and the TP [4] was 6.4 g/dL. For the same compound, the gamma-GTP [4] was 2 IU/L and the TERMINAL_BW (20 mg/kg, 72 h, dose level Low, time 3 day) was 234.1 g.
